Reference: US5496947A, “Quinolone carboxylic acid derivatives” (Dong Wha Pharmaceutical Industrial Co., Ltd., priority 1994, dated 1996)
Like-named read-outs stand apart in the source and are kept apart here.

How the values were obtained:
Assay type in all cases: cell-based
[1] = system: Streptococcus pneumoniae ATCC 6303; experiment: MIC, 2-fold dilution method in micro-well plate, S. pneumoniae; conditions: S. pneuinoniae ATCC6303, 37° C., read-out: Minimum Inhibitory Concentration
Method: (§1) The in vitro antibiotic activity of the present compound is measured using 2-fold dilution method with a micro-well plate and the bacteria are inoculated in about 10^5 cfu/ml after an overnight culture in a brain-heart infusion (BHI) broth at 37° C. The novel compounds of the present invention are converted to a hydrochloride salt form and diluted with a sterilized distilled water to make 10 mg/ml aqueous solution. After the mother liquor wherein the compound is diluted to the two-fold concentration has been obtained in the form of an aqueous solution, the respective 0.1 ml of diluted liquor is transferred to a well and is inoculated with 0.1 ml of the culture fluid to make about (10^5 -10^6)/2 cfu/ml.
(§2) After cultivation at 37° C., the minimum inhibitory concentration (MIC) is measured and recorded in Table I-V.
(§3) Table I-V show the minimum inhibitory concentrations (MIC).
Streptococcus pneumoniae ATCC 6303

[2] = system: Haemophilus influenza ATCC 35056; experiment: MIC, 2-fold dilution method in micro-well plate, H. influenzae; conditions: H. influenzae ATCC35056, 37° C.; read-out: Minimum Inhibitory Concentration
Method: as §1, §2, §3
Haemophilus influenza ATCC 35056

[3] = system: Klebsiella pneumoniae ATCC 13883; experiment: MIC, 2-fold dilution method in micro-well plate, K. pneumoniae
Method: as §1, §2, §3
Klebsiella pneumoniae ATCC 13883

[4] = system: Serratia marcescens ATCC 8100; experiment: MIC, 2-fold dilution method in micro-well plate, S. marcescens
Method: as §1, §2, §3
Serratia marcescens ATCC 8100

Enterobacter cloacae = experiment: MIC, 2-fold dilution method in micro-well plate, E. cloacae; conditions: read-out: Minimum Inhibitory Concentration
Method: as §1, §2, §3
Enterobacter cloacae ATCC 23355

[5] = system: Proteus vulgaris ATCC 13315; experiment: MIC, 2-fold dilution method in micro-well plate, P. vulgaris
Method: as §1, §2, §3
Proteus vulgaris ATCC 13315

[6] = system: Salmonella typhimurium ATCC 14028; experiment: MIC, 2-fold dilution method in micro-well plate, S. typhimurium; conditions: Salmonella enterica, read-out: Minimum Inhibitory Concentration
Method: as §1, §2, §3
Salmonella typhimurium ATCC 14028

[7] = system: Streptococcus faecalis ATCC 29212; experiment: MIC, 2-fold dilution method in micro-well plate, S. faecalis ATCC 29212; conditions: Enterococcus faecalis; S. faecalis ATCC29212, 37° C.; read-out: Minimum Inhibitory Concentration
Method: as §1, §2, §3
Streptococcus faecalis ATCC 29212

[8] = system: Citrobacter freundii ATCC 8090; experiment: MIC, 2-fold dilution method in micro-well plate, C. freundii
Method: as §1, §2, §3
Citrobacter freundii ATCC 8090

[9] = system: Streptococcus pyrogens ATCC 19615; experiment: MIC, 2-fold dilution method in micro-well plate, S. pyrogens; conditions: S. pyrogenes ATCC19615, 37° C., read-out: Minimum Inhibitory Concentration
Method: as §1, §2, §3
Streptococcus pyrogens ATCC 19615

[10] = system: Shigella flexneri ATCC 12022; experiment: MIC, 2-fold dilution method in micro-well plate, S. flexneri; conditions: S. flexneri ATCC12022, 37° C., read-out: Minimum Inhibitory Concentration
Method: as §1, §2, §3
Shigella flexneri ATCC 12022

[11] = system: Shigella sonnei ATCC 25931; experiment: MIC, 2-fold dilution method in micro-well plate, S. sonnei; conditions: S. sonnei ATCC25931, 37° C., read-out: Minimum Inhibitory Concentration
Method: as §1, §2, §3
Shigella sonnei ATCC 25931

[12] = system: Enterobacter aerogenes ATCC 13048; experiment: MIC, 2-fold dilution method in micro-well plate, E. aerogenes; conditions: Klebsiella aerogenes
Method: as §1, §2, §3
Enterobacter aerogenes ATCC 13048

[13] = system: Streptococcus faecalis ATCC 19433; experiment: MIC, 2-fold dilution method in micro-well plate, S. faecalis ATCC 19433; conditions: Enterococcus faecalis; S. faecalis ATCC19433, 37° C.; read-out: Minimum Inhibitory Concentration
Method: as §1, §2, §3
Streptococcus faecalis ATCC 19433

[14] = system: Escherichia coli ATCC 25922; experiment: MIC, 2-fold dilution method in micro-well plate, E. coli
Method: as §1, §2, §3
Escherichia coli ATCC 25922

[15] = system: Acinetobacter calcoaceticus; experiment: MIC, 2-fold dilution method in micro-well plate, A. calcoaceticus
Method: as §1, §2
Table I-V show the minimum inhibitory concentrations (MIC). […]

[16] = system: Pseudomonas aeruginosa ATCC 27853; experiment: MIC, 2-fold dilution method in micro-well plate, P. aeruginosa
Method: as §1, §2, §3
Pseudomonas aeruginosa ATCC 27853

[17] = ATCC13883, read-out: Minimum Inhibitory Concentration
[18] = S. marcescens ATCC8100, 37° C., read-out: Minimum Inhibitory Concentration
[19] = ATCC13315, read-out: Minimum Inhibitory Concentration
[20] = C. freundii ATCC8090, 37° C., read-out: Minimum Inhibitory Concentration
[21] = E. aerogenes ATCC13048, 37° C., read-out: Minimum Inhibitory Concentration
[22] = E. coli ATCC25922, 37° C., read-out: Minimum Inhibitory Concentration
[23] = A. calcoaceticus ATCC8090 (as in tables), 37° C., read-out: Minimum Inhibitory Concentration
[24] = ATCC27853, read-out: Minimum Inhibitory Concentration
[25] = ATCC8100, read-out: Minimum Inhibitory Concentration
[26] = P. vulgaris ATCC13315, 37° C., read-out: Minimum Inhibitory Concentration
[27] = ATCC8090, read-out: Minimum Inhibitory Concentration
[28] = ATCC13048, read-out: Minimum Inhibitory Concentration
[29] = P. aerugirnosa ATCC27853, 37° C., read-out: Minimum Inhibitory Concentration
[30] = K. pneumoniae ATCC13883, 37° C., read-out: Minimum Inhibitory Concentration
[31] = E. cloacae ATCC23355 (as in tables), 37° C.
[32] = S. typhisurium ATCC14028, 37° C.

| SMILES | MIC [1] [µg/mL] | MIC [2] [µg/mL] | MIC [3, 17] [µg/mL] | MIC [4, 18] [µg/mL] | MIC (Enterobacter cloacae) [µg/mL] | MIC [5, 19] [µg/mL] | MIC [6] [µg/mL] | MIC [7] [µg/mL] | MIC [8, 20] [µg/mL] | MIC [9] [µg/mL] | MIC [10] [µg/mL] | MIC [11] [µg/mL] | MIC [12, 21] [µg/mL] | MIC [13] [µg/mL] | MIC [14, 22] [µg/mL] | MIC [15, 23] [µg/mL] | MIC [16, 24] [µg/mL] | MIC [5, 26] [µg/mL] | MIC [8, 27] [µg/mL] | MIC [16, 29] [µg/mL] | also measured |
| --- | --- | --- | --- | --- | --- | --- | --- | --- | --- | --- | --- | --- | --- | --- | --- | --- | --- | --- | --- | --- | --- |
| CC1CN(c2nc3c(cc2F)c(=O)c(C(=O)O)cn3-c2ccncc2F)CC(C)N1.Cl (stereo not shown) [Example 10, 1-(3-fluoro-4-pyridyl)-6-fluoro-7-(3,5-dimethyl-1-piperazinyl)-1,4-dihydro-4-oxo-1,8-naphthyridine-3-carboxylic acid hydrochloride] | 5 | 0.625 | 0.625 | 2.5 | 0.625 | 0.625 | 0.625 | 5 | 1.25 | 10 | 0.625 | 0.625 | 1.25 | 2.5 | 1.25 | 10 | 0.25 | – | – | – | – |
| Cl.N[C@H]1CCN(c2nc3c(cc2F)c(=O)c(C(=O)O)cn3-c2ccncc2F)C1 [Example 11, 1-(3-fluoro-4-pyridyl)-6-fluoro-7-[(3S)-3-amino-1-pyrrolidinyl]-1,4-dihydro-4-oxo-1,8-naphthyridine-3-carboxylic acid hydrochloride] | 1.25 | 0.156 | 0.156 | – | 0.156 | – | 0.156 | 0.625 | – | 2.5 | 0.156 | 0.01 | – | 0.625 | 0.078 | 1.25 | 0.156 | 0.313 | 0.156 | – | MIC [4, 25]: 0.156 µg/mL; MIC [12, 28]: 0.156 µg/mL |
| Cl.O=C(O)c1cn(-c2ccc(F)cn2)c2nc(N3CCNCC3)c(F)cc2c1=O [Example 12, 1-(5-fluoro-2-pyridyl)-6-fluoro-7-(1-piperazinyl)-1,4-dihydro-4-oxo-1,8-naphthyridine-3-carboxylic acid hydrochloride] | 5 | 1.25 | 0.625 | – | 0.625 | 0.625 | 1.25 | 5 | – | 5 | 0.625 | 0.313 | – | 5 | – | – | – | – | 1.25 | 1.25 | MIC [4, 25]: 1.25 µg/mL; MIC [12, 28]: 0.625 µg/mL; MIC ([14]; ATCC25922, read-out: Minimum Inhibitory Concentration): 0.313 µg/mL; MIC [15, 27]: 0.625 µg/mL |
| CC1CN(c2nc3c(cc2F)c(=O)c(C(=O)O)cn3-c2ccc(F)cn2)CC(C)N1.Cl (stereo not shown) [Example 15, 1-(5-fluoro-2-pyridyl)-6-fluoro-7-(3,5-dimethyl-1-piperazinyl)-1,4-dihydro-4-oxo-1,8-naphthyridine-3-carboxylic acid hydrochloride] | 10 | 2.5 | – | 1.25 | – | – | – | 5 | – | 10 | 0.313 | 0.078 | 1.25 | 5 | 0.625 | 0.625 | – | 1.25 | 0.313 | 1.25 | MIC [3, 30]: 0.625 µg/mL; MIC (Enterobacter cloacae; [31]): 0.625 µg/mL; MIC [6, 32]: 1.25 µg/mL |
| Cl.NC1CCN(c2nc3c(cc2F)c(=O)c(C(=O)O)cn3-c2ccc(F)cn2)C1 (stereo not shown) [Example 16, 1-(5-fluoro-2-pyridyl)-6-fluoro-7-(3-amino-1-pyrrolidinyl)-1,4-dihydro-4-oxo-1,8-naphthyridine-3-carboxylic acid hydrochloride] | 1.25 | 0.078 | – | 0.078 | – | – | – | 0.625 | 0.078 | 2.5 | 0.039 | 0.02 | 0.313 | 1.25 | 0.078 | 0.156 | – | 0.078 | – | 0.156 | MIC [3, 30]: 0.078 µg/mL; MIC (Enterobacter cloacae; [31]): 0.156 µg/mL; MIC [6, 32]: 0.313 µg/mL |
